Results reported in article PMC7284918, “In-Depth Characterization of EpiIntestinal Microtissue as a Model for Intestinal Drug Absorption and Metabolism in Human” (Pharmaceutics, 2020).

Tests used:
UGT [1] = assay: DME activity in Caco-2: UGT; format: in vitro ADME, human; conditions: UGT/7-OH-Coumarin, metabolite 7-OH-Coumarin-Glucuronid
Procedure: (§2) For measurements of DME activities in EpiIntestinal microtissues and Caco-2 cells, both were cultured in 96-well Transwell inserts. Drugs (Table 1) were dissolved in the respective solvent at 200x concentration and diluted in a pre-warmed transport buffer. Diluted substrate solution was applied to the apical (100 µL) and basal (250 µL) compartment of the Transwell and incubated at 37 °C and 5% CO2 and 60 rpm continuous shaking. DME activities were determined by monitoring metabolite formation in basal compartment over time (0, 0.5, 1, 2, 3 and 4 h) with LC-MS/MS. […] Chromatographic separation of samples was performed on YMC Triart C18 (1.9 µm, 30 × 2 mm; YMC Europe, Dinslaken, Germany) LC analytical column. Quantification of all metabolites listed in Table 1 was achieved by the use of calibration curves for the individual metabolites with appropriate concentration ranges.
(§3) A total of 10 µL of the incubation sample were diluted with 90 µL of water containing 10–20% ACN or methanol, 0.1% formic acid and the respective internal standard. To analyze the intracellular metabolite concentration, cells on Transwell inserts were washed twice with ice-cold PBS and stored at −80 °C for 20 min. Afterwards, 150 µL 50% ACN diluted with transport buffer was added to the cells and incubated at room temperature for 30 min. […]

SULT [2] = assay: DME activity in Caco-2: SULT; format: in vitro ADME, human; conditions: SULT/7-OH-Coumarin, metabolite 7-OH-Coumarin-Sulfat
Procedure: as §2, §3

UGT [3] = assay: DME activity in EpiIntestinal microtissues: UGT; format: in vitro ADME, human; conditions: UGT/7-OH-Coumarin, metabolite 7-OH-Coumarin-Glucuronid
Procedure: as §2, §3

SULT [4] = assay: DME activity in EpiIntestinal microtissues: SULT; format: in vitro ADME, human; conditions: SULT/7-OH-Coumarin, metabolite 7-OH-Coumarin-Sulfat
Procedure: as §2, §3

CYP2D6 [5] = target: T1, CYP2D6 (Homo sapiens, UniProt P10635); assay: DME activity in Caco-2: CYP2D6; format: in vitro ADME; conditions: CYP2D6/Dextromethorphan, metabolite Dextrorphan
T1 construct: endogenous in cells; host or cells: Caco-2 cells in 96-well Transwell inserts
T1 sequence (P10635 whole entry): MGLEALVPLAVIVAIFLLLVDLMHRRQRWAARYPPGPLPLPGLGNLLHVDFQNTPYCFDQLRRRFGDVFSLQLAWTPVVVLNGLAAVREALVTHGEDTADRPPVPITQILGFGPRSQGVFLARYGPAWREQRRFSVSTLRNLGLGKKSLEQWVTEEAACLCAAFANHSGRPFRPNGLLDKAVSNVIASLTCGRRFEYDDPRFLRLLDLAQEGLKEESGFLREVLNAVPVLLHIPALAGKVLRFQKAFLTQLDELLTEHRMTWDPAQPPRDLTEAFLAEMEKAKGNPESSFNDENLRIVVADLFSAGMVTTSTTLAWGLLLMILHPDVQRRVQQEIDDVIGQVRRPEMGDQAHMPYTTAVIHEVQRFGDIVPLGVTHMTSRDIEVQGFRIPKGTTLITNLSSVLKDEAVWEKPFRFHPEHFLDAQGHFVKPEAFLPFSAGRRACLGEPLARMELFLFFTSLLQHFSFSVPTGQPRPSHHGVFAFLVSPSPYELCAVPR
Procedure: as §2, §3

CYP2D6 [6] = target: T1, CYP2D6; assay: DME activity in EpiIntestinal microtissues: CYP2D6; format: in vitro ADME; conditions: CYP2D6/Dextromethorphan, metabolite Dextrorphan
Procedure: as §2, §3

[7] = Bidirectional permeability assay in Caco-2; format: in vitro ADME, human; conditions: human, no inhibitor, mean of duplicates
BCRP = assay: Bidirectional permeability assay in Caco-2; format: in vitro ADME, human; conditions: human, pH 7.4, with Ko-143 (3 µM), with BCRP inhibitor Ko-143 (3 µM)
Caco-2 cells = assay: Bidirectional permeability assay in Caco-2; format: in vitro ADME, human; conditions: with P-gp inhibitor Zosuqidar (5 µM)
P-gp = assay: Bidirectional permeability assay in Caco-2; format: in vitro ADME, human; conditions: human, pH 7.4, with Zosuqidar (5 µM), with P-gp inhibitor Zosuqidar (5 µM)
[8] = tested on: EpiIntestinal microtissues; assay: Bidirectional permeability assay in EpiIntestinal microtissues; format: in vitro ADME, human
Procedure: Caco-2 cells were obtained from Leibniz Institute DSMZ-German Collection of Microorganisms and Cell Cultures (Braunschweig, Germany) and cultured in DMEM containing 10% FCS, 1% NEAA, 2 mM Glutamin, 100 U/mL Penicillin and 100 µg/mL Streptomycin. […] EpiIntestinal microtissues were obtained from MatTek (Bratislav, Slovakia) and cultured according to the manufacturer’s instruction (24-well format for bidirectional permeability assays and GI firstpass availability assays and 96-well format for screening of DME activities).
Bidirectional permeability assays were performed as described previously. […] In indicated experiments, inhibitors were added to both compartments. Cells were incubated with the compounds for up to 2 h. Samples from the opposite compartment were taken at different timepoints. […] Prior to bioanalysis samples were spiked with internal standard solution and diluted with acetonitrile (ACN) for protein precipitation. Measurement was operated in multiple reaction monitoring (MRM) mode. Quantification was performed using external calibration. Apparent permeability coefficients in the apical to basal direction (Papp,AB) and in the basal to apical direction (Papp,BA) and efflux were calculated as follows Papp,AB=QAB/(C0×s×t) Papp,BA=QBA/(C0×s×t) Efflux=Papp,BA/Papp,AB where Q is the amount of compound recovered in the receiver compartment after the incubation time t, C0 the initial compound concentration given to the donor compartment, and s the surface area of the Transwell inserts. Efflux ratio is calculated as the quotient of Papp,BA to Papp,AB. […] In addition, Transepithelial electrical resistance (TEER) values are measured for each plate before the permeability assay and total recovery in donor and receiver compartments was determined for each compound. All these parameters (efflux of apafant, Papp values of the low permeable compound, TEER values, and total recovery) are used to ensure the quality of the assays.

[9] = Intestinal first-pass availability in EpiIntestinal microtissues; format: in vitro ADME, human; conditions: human, EpiIntestinal microtissues, 10 µM apical, GI firstpass availability, read-out: Recovery in Basal Comp. @ 24h (%)
Procedure: Compounds were diluted in culture media to a final concentration of 10 µM and added to the apical (donor) compartment (total volume: 100 µL for EpiIntestinal and 200 µL for Caco-2). After the incubation at 37 °C for 2, 4, 6, and 24 h, samples (50 µL) were taken from the basal (receiver) compartment (total volume: 5000 µL for EpiIntestinal and 800 µL for Caco-2). After the last timepoint, samples from the donor compartments and the cell lysates were also collected. Compound concentrations in the samples were determined by HPLC-MS/MS (Section 2.3).
GI first-pass availability of the tested compounds was expressed as fraction (%) of the total amount of a compound added to the donor compartment recovered in the receiver compartment.

in vitro = conditions: human, blood
From the text: Blood CLb can be converted from plasma clearance CLp with the blood-to-plasma ratio RB: CLb=CLp/RB

[10] = human, clinical; cited from earlier work
CES1 and CES2 [11] = assay: CES-mediated metabolism of dabigatran etexilate in human hepatocytes (huHEP); format: in vitro ADME; conditions: human hepatocytes in suspension; 2 µM
Procedure: (§1) CES-mediated metabolism of dabigatran etexilate was measured in cryopreserved human hepatocytes (BioIVT, West Sussex, UK) and cryopreserved human intestinal mucosa (in vitro ADMET laboratories, Columbia, MD, USA) in suspension and in Caco-2 cells and EpiIntestinal microtissues grown on Transwell inserts. Dabigatran etexilate was diluted in culture media for the respective cells or tissues. The final concentrations of dabigatran etexilate were selected in an earlier experiment to ensure reasonable turnover of the compound within the incubation time: 2 µM for hepatocytes and intestinal mucosa, 10 µM for Caco-2 and EpiIntestinal microtissues. In the experiments with Transwell inserts, dabigatran etexilate was given to the apical compartments, metabolites were measured in the basal (receiver) compartments. Concentrations of the metabolites were determined by HPLC-MS/MS (Section 2.3).

CES1 and CES2 [12] = assay: CES-mediated metabolism of dabigatran etexilate in human intestinal mucosa (HIM); format: in vitro ADME; conditions: human intestinal mucosa in suspension; 2 µM
Procedure: as §1

CES1 and CES2 [13] = assay: CES-mediated metabolism of dabigatran etexilate in Caco-2 cells; format: in vitro ADME, human; conditions: Caco-2 on Transwell; 10 µM apical; basal compartment
Procedure: as §1

CES1 and CES2 [14] = assay: CES-mediated metabolism of dabigatran etexilate in EpiIntestinal microtissues; format: in vitro ADME, human; conditions: EpiIntestinal on Transwell; 10 µM apical; basal compartment
Procedure: as §1

[15] = with BCRP inhibitor Ko-143 (3 µM)
[16] = with P-gp inhibitor Zosuqidar (5 µM)

SMILES: O=c1ccc2ccc(O)cc2o1 [7-OH-Coumarin]
- Intracellular Metabolite (% of Total) (UGT [1]): 5.5 % of Total
- Intracellular Metabolite (% of Total) (SULT [2]): BLQ
- Intracellular Metabolite (% of Total) (UGT [3]): 10.0 % of Total
- Intracellular Metabolite (% of Total) (SULT [4]): 3.4 % of Total

SMILES: COc1ccc2c(c1)[C@]13CCCC[C@@H]1[C@H](C2)N(C)CC3 [Dextromethorphan]
- Intracellular Metabolite (% of Total) (CYP2D6 [5]): BLQ
- Intracellular Metabolite (% of Total) (CYP2D6 [6]): BLQ

SMILES: CC(C)c1nc(N(C)S(C)(=O)=O)nc(-c2ccc(F)cc2)c1/C=C/[C@@H](O)C[C@@H](O)CC(=O)O [Rosuvastatin]
- Papp A→B at 10 µM ([7]; pH 7.4, 10 µM): 0.3 ×10⁻⁶ cm/s
- efflux ratio at 10 µM ([7]; pH 7.4, Papp,BA/Papp,AB): 21
- efflux ratio at 10 µM (BCRP): 5.5
- PappAB (Caco-2 cells): 0.3 10^−6 cm/s
- efflux ratio at 10 µM (P-gp): 19
- Efflux ([8]; Papp,BA/Papp,AB, no inhibitor, mean of triplicates): 100.0
- Efflux [8, 15]: 3.1
- PappAB [8, 15]: 2.6 10^−6 cm/s
- Efflux [8, 16]: 25
- PappAB [8, 16]: 0.9 10^−6 cm/s
- recovery at 24 h, 10 µM [9]: 30%
- blood plasma ratio (in vitro): 0.75
- F (total oral availability) [10]: 0.2 [8]
- fe (fraction of renal excretion) [10]: 0.3 [23]

SMILES: CCCCCCOC(=O)NC(=N)c1ccc(NCc2nc3cc(C(=O)N(CCC(=O)OCC)c4ccccn4)ccc3n2C)cc1 [dabigatran etexilate]
- Main metabolite of dabigatran etexilate (CES1 and CES2 [11]): BIBR 1087
- Main metabolite of dabigatran etexilate (CES1 and CES2 [12]): BIBR 951
- Main metabolite of dabigatran etexilate (CES1 and CES2 [13]): BIBR 1087
- Main metabolite of dabigatran etexilate (CES1 and CES2 [14]): BIBR 953
